What is called MIC is the lowest concentration found to suppress growth. A lower MIC goes with a more susceptible organism.

Results on twelve compounds are retold here after ChEMBL document CHEMBL3045696, “CsFCelite catalyzed facile N-alkylation of 2(3H)-benzoxazolones and antimicrobial properties of 2-substituted benzoxazole and 3-substituted-2(3H)-benzoxazolone derivatives” (2011).

What all share (type): functional
One assay has as its system Escherichia coli. In words: Antimicrobial activity against Escherichia coli MTCC 443 by broth dilution method. Background: Broth dilution looks for growth in wells or tubes with falling amounts of substance.
Another assay deals with Staphylococcus aureus. Description: Antimicrobial activity against Staphylococcus aureus MTCC 96 by broth dilution method.
For assay [1], the system named is Staphylococcus epidermidis. Description: Antimicrobial activity against Staphylococcus epidermidis by broth dilution method.
The subject of assay [2] is Rhizopus arrhizus. In words: Antimicrobial activity against Rhizopus oryzae MTCC 262 at 100 ug after 48 hr by agar well diffusion method. Conditions: for zone of inhibition at 100 µg/disc: MTCC 262, 48 h, read-out: IZ. On the technique in general: Agar diffusion results depend on both activity and mobility in agar.
The test system of assay [3] is Aspergillus niger. In words: Antimicrobial activity against Aspergillus niger MTCC 282 at 150 ug after 48 hr by agar well diffusion method. As to conditions: for zone of inhibition at 150 µg/disc: MTCC 282, 48 h, read-out: IZ.
Assay [4] has as its system Rhizopus arrhizus. Description: Antimicrobial activity against Rhizopus oryzae MTCC 262 at 150 ug after 48 hr by agar well diffusion method. As to conditions: for zone of inhibition at 150 µg/disc: MTCC 262, 48 h, read-out: IZ.
The test system of a further assay is Pseudomonas aeruginosa. Description: Antimicrobial activity against Pseudomonas aeruginosa MTCC 741 by broth dilution method.
Another assay concerns Klebsiella pneumoniae. Description: Antimicrobial activity against Klebsiella pneumoniae MTCC 618 by broth dilution method.
The subject of assay [5] is Aspergillus niger. In words: Antimicrobial activity against Aspergillus niger MTCC 282 at 100 ug after 48 hr by agar well diffusion method. As to conditions: for zone of inhibition at 100 µg/disc: MTCC 282, 48 h, read-out: IZ.
The test system of assay [6] is Saccharomyces cerevisiae. Description: Antimicrobial activity against Saccharomyces cerevisiae MTCC 36 at 100 ug after 48 hr by agar well diffusion method. Conditions: for zone of inhibition at 100 µg/disc: MTCC 36, 48 h, read-out: IZ.
The subject of assay [7] is Saccharomyces cerevisiae. In words: Antimicrobial activity against Saccharomyces cerevisiae MTCC 36 at 150 ug after 48 hr by agar well diffusion method. Conditions: for zone of inhibition at 150 µg/disc: MTCC 36, 48 h, read-out: IZ.
Assay [8] deals with Candida albicans. Description: Antimicrobial activity against Candida albicans MTCC 227 at 150 ug after 48 hr by agar well diffusion method. Conditions: for zone of inhibition at 150 µg/disc: MTCC 227, 48 h, read-out: IZ.
For assay [9], the system named is Candida albicans. In words: Antimicrobial activity against Candida albicans MTCC 227 at 100 ug after 48 hr by agar well diffusion method. Conditions: for zone of inhibition at 100 µg/disc: MTCC 227, 48 h, read-out: IZ.
Another assay has as its system Bacillus subtilis. Description: Antimicrobial activity against Bacillus subtilis MTCC 441 by broth dilution method.
The subject of assay [10] is Saccharomyces cerevisiae. In words: Antimicrobial activity against Saccharomyces cerevisiae MTCC 36 at 50 ug after 48 hr by agar well diffusion method. As to conditions: MTCC 36, 48 h, read-out: IZ.
Assay [11] relates to Aspergillus niger. Description: Antimicrobial activity against Aspergillus niger MTCC 282 at 50 ug after 48 hr by agar well diffusion method. Conditions: MTCC 282, 48 h, read-out: IZ.
Assay [12] has as its system Rhizopus arrhizus. In words: Antimicrobial activity against Rhizopus oryzae MTCC 262 at 50 ug after 48 hr by agar well diffusion method. Conditions: MTCC 262, 48 h, read-out: IZ.
Assay [13] relates to Candida albicans. In words: Antimicrobial activity against Candida albicans MTCC 227 at 50 ug after 48 hr by agar well diffusion method. Conditions: MTCC 227, 48 h, read-out: IZ.

Structures are written as SMILES. In brackets after ≈: the same amount, converted by molar mass. Activity calls are given as the source filed them. The calls are words filed in the database; no cut-off is given here.

`O=c1oc2ccc(Cl)cc2n1CCCN1CCN(Cc2ccccc2)CC1`: the MIC against Escherichia coli stood at 150 mg/L (≈ 389 µM); with Staphylococcus aureus, 150 mg/L (≈ 389 µM); in assay [1], 75 mg/L (≈ 194 µM); against Pseudomonas aeruginosa, 75 mg/L (≈ 194 µM); against Klebsiella pneumoniae, 150 mg/L (≈ 389 µM); with Bacillus subtilis, 150 mg/L (≈ 389 µM). Moreover, the outcome in the assay on Rhizopus arrhizus [2], with Rhizopus arrhizus [4], in the assay on Saccharomyces cerevisiae [6], in the assay on Saccharomyces cerevisiae [7] and in the assay on Candida albicans [9] was inactive. Moreover, the zone of inhibition at 150 µg/disc in the assay with Aspergillus niger [3] and in the assay on Candida albicans [8] was 9 mm throughout. For the same compound, the zone of inhibition at 100 µg/disc in the assay on Aspergillus niger [5] was 7 mm.

As for `C=CCn1c(=O)oc2ccc(Cl)cc21`, the MIC stood at 150 mg/L (≈ 716 µM) in the assay with Escherichia coli; 150 mg/L (≈ 716 µM) in the assay on Staphylococcus aureus; 150 mg/L (≈ 716 µM) in assay [1]; 75 mg/L (≈ 358 µM) against Pseudomonas aeruginosa; 37.5 mg/L (≈ 179 µM) against Klebsiella pneumoniae; 150 mg/L (≈ 716 µM) in the assay on Bacillus subtilis. Moreover, the outcome with Rhizopus arrhizus [2], in the assay on Rhizopus arrhizus [4], in the assay with Saccharomyces cerevisiae [6], in the assay on Saccharomyces cerevisiae [7] and in the assay on Candida albicans [9] was inactive. For the same compound, the zone of inhibition at 150 µg/disc with Aspergillus niger [3] was 10 mm; in the assay on Candida albicans [8], 8 mm. Also, the zone of inhibition at 100 µg/disc with Aspergillus niger [5] came out at 8 mm.

On to `O=c1oc2ccc(Cl)cc2n1CCCN1CCOCC1`, for which the MIC with Escherichia coli was 37.5 mg/L (≈ 126 µM); against Staphylococcus aureus, 75 mg/L (≈ 253 µM); in assay [1], 75 mg/L (≈ 253 µM); with Pseudomonas aeruginosa, 37.5 mg/L (≈ 126 µM); with Klebsiella pneumoniae, 75 mg/L (≈ 253 µM); with Bacillus subtilis, 75 mg/L (≈ 253 µM). The zone of inhibition at 100 µg/disc with Rhizopus arrhizus [2] came out at 10 mm; in the assay with Aspergillus niger [5] it was 8 mm; in the assay with Saccharomyces cerevisiae [6], 8 mm; in the assay on Candida albicans [9], 8 mm. Further, the zone of inhibition at 150 µg/disc amounted to 10 mm with Aspergillus niger [3], 13 mm in the assay on Rhizopus arrhizus [4], 10 mm with Saccharomyces cerevisiae [7] and 10 mm in the assay on Candida albicans [8].

In the case of `c1ccc(N2CCN(c3nc4ccccc4o3)CC2)cc1`, the MIC against Escherichia coli stood at 75 mg/L (≈ 268 µM); with Staphylococcus aureus, 150 mg/L (≈ 537 µM); in [1] it was 150 mg/L (≈ 537 µM); against Pseudomonas aeruginosa, 75 mg/L (≈ 268 µM); with Klebsiella pneumoniae it was 150 mg/L (≈ 537 µM); against Bacillus subtilis, 150 mg/L (≈ 537 µM). Also, the result with Rhizopus arrhizus [2], in the assay with Aspergillus niger [3], with Rhizopus arrhizus [4], with Aspergillus niger [5], with Saccharomyces cerevisiae [6] and in the assay with Saccharomyces cerevisiae [7] was inactive. In addition, the outcome in the assay on Candida albicans [9] was inactive. Further, the zone of inhibition at 150 µg/disc in the assay with Candida albicans [8] was 9 mm.

In the case of `c1ccc(CN2CCN(c3nc4ccccc4o3)CC2)cc1`, the minimum inhibitory concentration (MIC) in the assay with Escherichia coli was found to be 150 mg/L (≈ 511 µM); with Staphylococcus aureus, 150 mg/L (≈ 511 µM); in assay [1], 75 mg/L (≈ 256 µM); against Pseudomonas aeruginosa, 75 mg/L (≈ 256 µM); in the assay on Klebsiella pneumoniae, 150 mg/L (≈ 511 µM); against Bacillus subtilis, 150 mg/L (≈ 511 µM). Besides, the outcome in the assay on Rhizopus arrhizus [2], in the assay with Aspergillus niger [5] and with Candida albicans [9] was inactive. Also, the zone of inhibition at 150 µg/disc in the assay with Aspergillus niger [3] came out at 9 mm; in the assay with Rhizopus arrhizus [4], 9 mm; with Saccharomyces cerevisiae [7] it was 10 mm; in the assay on Candida albicans [8], 9 mm. For the same compound, the zone of inhibition at 100 µg/disc in the assay with Saccharomyces cerevisiae [6] was found to be 12 mm.

`C#CCn1c(=O)oc2ccc(Cl)cc21`: the MIC was 37.5 mg/L (≈ 181 µM) with Escherichia coli; 75 mg/L (≈ 361 µM) against Staphylococcus aureus; 75 mg/L (≈ 361 µM) in [1]; 37.5 mg/L (≈ 181 µM) against Pseudomonas aeruginosa; 75 mg/L (≈ 361 µM) with Klebsiella pneumoniae; 75 mg/L (≈ 361 µM) with Bacillus subtilis. Further, the zone of inhibition at 100 µg/disc in the assay on Rhizopus arrhizus [2] was 15 mm; with Aspergillus niger [5] it was 15 mm; in the assay on Saccharomyces cerevisiae [6], 14 mm; in the assay with Candida albicans [9], 8 mm. For the same compound, the zone of inhibition at 150 µg/disc in the assay on Aspergillus niger [3] was found to be 18 mm; in the assay on Rhizopus arrhizus [4] it was 19 mm; in the assay with Saccharomyces cerevisiae [7] it was 18 mm; in the assay with Candida albicans [8], 11 mm.

In the case of `c1ccc(N2CCN(c3nc4ccccc4o3)CC2)nc1`, the MIC was found to be 150 mg/L (≈ 535 µM) against Escherichia coli; 150 mg/L (≈ 535 µM) in the assay with Staphylococcus aureus; 150 mg/L (≈ 535 µM) in [1]; 75 mg/L (≈ 268 µM) in the assay with Pseudomonas aeruginosa; 150 mg/L (≈ 535 µM) with Klebsiella pneumoniae; 150 mg/L (≈ 535 µM) with Bacillus subtilis. The outcome in the assay on Rhizopus arrhizus [2], with Aspergillus niger [3], in the assay on Rhizopus arrhizus [4], in the assay with Aspergillus niger [5], with Saccharomyces cerevisiae [6] and in the assay on Saccharomyces cerevisiae [7] was inactive. In addition, the zone of inhibition at 150 µg/disc in the assay with Candida albicans [8] is 10 mm. Moreover, the zone of inhibition at 100 µg/disc in the assay with Candida albicans [9] was 8 mm.

Take `Clc1cccc(N2CCN(c3nc4ccccc4o3)CC2)c1`: the minimum inhibitory concentration (MIC) in the assay on Escherichia coli was 150 mg/L (≈ 478 µM); with Staphylococcus aureus, 75 mg/L (≈ 239 µM); in assay [1] it was 150 mg/L (≈ 478 µM); in the assay on Pseudomonas aeruginosa it was 150 mg/L (≈ 478 µM); with Klebsiella pneumoniae, 150 mg/L (≈ 478 µM); against Bacillus subtilis it was 150 mg/L (≈ 478 µM). The outcome in the assay on Rhizopus arrhizus [2], in the assay with Aspergillus niger [3], with Rhizopus arrhizus [4], with Aspergillus niger [5], in the assay with Saccharomyces cerevisiae [6] and in the assay on Saccharomyces cerevisiae [7] was inactive. The result with Candida albicans [8] and in the assay with Candida albicans [9] was inactive.

As to `C[C@@H]1[C@H](O)[C@@H](C)/C=C/C=C/C=C/C=C/C=C/C=C/C=C/[C@H](O[C@@H]2O[C@H](C)[C@@H](O)[C@H](N)[C@@H]2O)C[C@@H]2O[C@](O)(C[C@@H](O)C[C@@H](O)[C@H](O)CC[C@@H](O)C[C@@H](O)CC(=O)O[C@H]1C)C[C@H](O)[C@H]2C(=O)O` [AMPHOTERICIN B], the zone of inhibition at 50 µg/disc in the assay on Saccharomyces cerevisiae [10] was 22 mm; with Aspergillus niger [11], 25 mm; with Rhizopus arrhizus [12], 24 mm; with Candida albicans [13], 23.5 mm.

On to `O=c1oc2ccc(Cl)cc2n1CCCCl`, for which the MIC (in the assay on Escherichia coli; with Staphylococcus aureus; in [1]; in the assay with Pseudomonas aeruginosa; against Klebsiella pneumoniae; against Bacillus subtilis) was 150 mg/L (≈ 610 µM) throughout. Further, the zone of inhibition at 100 µg/disc with Rhizopus arrhizus [2] came to 11 mm; in the assay with Aspergillus niger [5], 13 mm; in the assay on Saccharomyces cerevisiae [6], 12 mm; with Candida albicans [9] it was 14 mm. The zone of inhibition at 150 µg/disc with Aspergillus niger [3] came out at 17 mm; with Rhizopus arrhizus [4] it was 15 mm; in the assay with Saccharomyces cerevisiae [7] it was 15 mm; in the assay with Candida albicans [8], 19 mm.

As to `CC(C)=CCn1c(=O)oc2ccc(Cl)cc21`, the MIC in the assay on Escherichia coli was determined as 150 mg/L (≈ 631 µM); in the assay with Staphylococcus aureus, 150 mg/L (≈ 631 µM); in assay [1] it was 75 mg/L (≈ 316 µM); with Pseudomonas aeruginosa it was 75 mg/L (≈ 316 µM); with Klebsiella pneumoniae, 150 mg/L (≈ 631 µM); against Bacillus subtilis, 150 mg/L (≈ 631 µM). The outcome in the assay with Rhizopus arrhizus [2] was inactive. The zone of inhibition at 150 µg/disc was 11 mm with Aspergillus niger [3], 9 mm in the assay on Rhizopus arrhizus [4], 10 mm in the assay on Saccharomyces cerevisiae [7] and 10 mm in the assay with Candida albicans [8]. Moreover, the figures for the zone of inhibition at 100 µg/disc in the assay on Aspergillus niger [5], with Saccharomyces cerevisiae [6] and in the assay on Candida albicans [9] were 8 mm, 8 mm and 7 mm, respectively.

Consider `c1ccc2oc(N3CCCCC3)nc2c1`, for which the MIC (in the assay with Escherichia coli; against Staphylococcus aureus; in assay [1]; against Pseudomonas aeruginosa; against Klebsiella pneumoniae; against Bacillus subtilis) was 150 mg/L (≈ 742 µM) throughout. Further, the zone of inhibition at 100 µg/disc amounted to 8 mm with Rhizopus arrhizus [2], 8 mm in the assay on Aspergillus niger [5], 9 mm with Saccharomyces cerevisiae [6] and 9 mm with Candida albicans [9]. Besides, the zone of inhibition at 150 µg/disc was 10 mm with Aspergillus niger [3], 11 mm with Rhizopus arrhizus [4], 12 mm in the assay on Saccharomyces cerevisiae [7] and 12 mm with Candida albicans [8].
